Results taken from article PMC6112376, “Comprehensive Analyses and Prioritization of Tox21 10K Chemicals Affecting Mitochondrial Function by in-Depth Mechanistic Studies” (Environmental Health Perspectives, 2018).
Like-named read-outs stand apart in the source and are kept apart here.

Key:
[1] = tested on: p53 (p53-bla HCT-116 cells); assay: p53 β-lactamase reporter gene assay; format: cell-based, human; details: Homo sapiens; 16 h incubation; mean±SD of three experiments
HepG2 cells [2] = assay: cells; details: Homo sapiens
[3] = tested on: Caenorhabditis elegans strain PE255; assay: In vivo C. elegans ATP status assay
[4] = tested on: Caenorhabditis elegans strain PE255; details: PE255 [sur-5::luc+::gfp; rol-6(su1006)], Caenorhabditis elegans, in vivo
[5] = tested on: isolated rat liver mitochondria; assay: Oxygen consumption, Clark-type oxygen electrode; format: biochemical
[6] = tested on: Nrf2/ARE (ARE-bla HepG2 cells); assay: ARE β-lactamase reporter gene assay; format: cell-based, human; details: Homo sapiens, HepG2; 16 h incubation; mean±SD of three experiments; read-out: ARE (HepG2) EC50
HepG2 cells [7] = details: cited from earlier work
rat primary hepatocytes [8] = assay: MMP assay in rat primary hepatocytes; details: Rattus norvegicus, Hepatocyte
[9] = tested on: Caenorhabditis elegans (Bristol N2); assay: C. elegans larval development and growth assay
rat primary hepatocytes [10] = tested on: rat primary hepatocytes
[11] = tested on: HeLa cells expressing YFP-Parkin; assay: Parkin translocation assay; format: cell-based, human
HepG2 cells [12] = assay: Intracellular ATP content (cell viability) assay; format: cell-based, human; details: Homo sapiens, HepG2, 40 h
hNSC = assay: MMP assay in human neural stem cells (hNSC); format: cell-based; details: Homo sapiens, Neural stem cell, 1 h, read-out: hNSC IC50 (MMP)
HepG2 cells [13] = assay: ROS-Glo hydrogen peroxide (ROS) assay; format: cell-based, human

Work on `Nc1ccc(N)c2c1C(=O)c1ccccc1C2=O` [1,4-Diaminoanthraquinone] yielded an EC50 [1] of 35.7 ± 2.41 µM, an IC50 (HepG2 cells [2]; HepG2, 1 h, read-out: HepG2 IC50 Galactose (MMP)) of 1.13 µM and an IC50 (HepG2 cells [2]; HepG2, 1 h, read-out: HepG2 IC50 Glucose (MMP)) of 0.77 µM. The IC50 (HepG2 cells [2]; HepG2, read-out: MMP assays IC50 (µM) HepG2) was 0.22 µM, the Emax (HepG2 cells [2]; HepG2, read-out: MMP assays efficacy (%) HepG2) was 81% and the “LUM: mean difference in luminescence (ATP content) relative to plate controls” value ([3]; 0.5 µM) was 0.03036. The “LUM: mean difference in luminescence (ATP content) relative to plate controls” value ([3]; 1 µM) was 0.08336, the “LUM: mean difference in luminescence (ATP content) relative to plate controls” value ([3]; 5 µM) was 0.4462 and the “LUM: mean difference in luminescence (ATP content) relative to plate controls” value ([3]; 10 µM) was 0.9963. For the same compound, the “LUM: mean difference in luminescence (ATP content) relative to plate controls” value ([3]; 25 µM) was 1.526, the “LUM: mean difference in luminescence (ATP content) relative to plate controls” value ([3]; 50 µM) was 1.59 and the “LUM: mean difference in luminescence (ATP content) relative to plate controls” value ([3]; 75 µM) was 2.063. The “LUM: mean difference in luminescence (ATP content) relative to plate controls” value ([3]; 100 µM) was 2.457, the minimal effective concentration ([3]; Caenorhabditis elegans, read-out: LEC LUM: lowest effect concentration for luminescence, a measure of nematode ATP content) was 5 µM and the “LEC (lowest effect concentration), ATP assay” value [4] was no more than 10 µM. For the same compound, the “Potential Mechanism” value [5] was “Inactive”, the “I-ADP, % of control (O2 consumption rate)” value ([5]; 20 µM) was 89 (44.1) % of control and the “I-sub, % of control (O2 consumption rate)” value ([5]; 20 µM) was 103 (14.2) % of control. For the same compound, the “II-ADP, % of control (O2 consumption rate)” value ([5]; 20 µM) was 90 (80.2) % of control, the “II-sub, % of control (O2 consumption rate)” value ([5]; 20 µM) was 100 (27.1) % of control and the “I-ADP, % of control (O2 consumption rate)” value ([5]; 100 µM) was 82 (23.4) % of control. The “I-sub, % of control (O2 consumption rate)” value ([5]; 100 µM) was 95 (11.4) % of control, the “II-ADP, % of control (O2 consumption rate)” value ([5]; 100 µM) was 97 (35.2) % of control and the “II-sub, % of control (O2 consumption rate)” value ([5]; 100 µM) was 95 (14.1) % of control. For the same compound, the EC50 [6] was 22.9 ± 27.4 µM, the “MMP assays efficacy (%) qHTS-HepG2” value (HepG2 cells [7]) was -82±13% and the IC50 (HepG2 cells [7]; read-out: MMP assays IC50 (µM) qHTS-HepG2) was 0.03 ± 0.01 µM. The IC50 (rat primary hepatocytes [8]; 1 h, read-out: Rat hepatocytes IC50 (MMP)) was 3.79 µM, the IC50 (rat primary hepatocytes [8]; read-out: MMP assays IC50 (µM) Rat Hepatocytes) was 1.24 ± 0.76 µM and the “EXT: mean difference in nematode size relative to plate controls” value ([9]; 0.5 µM) was 0.03102. The “EXT: mean difference in nematode size relative to plate controls” value ([9]; 1 µM) was 0.01427, the “EXT: mean difference in nematode size relative to plate controls” value ([9]; 5 µM) was 0.05881 and the “EXT: mean difference in nematode size relative to plate controls” value ([9]; 10 µM) was -0.04953. For the same compound, the “EXT: mean difference in nematode size relative to plate controls” value ([9]; 25 µM) was 0.1095, the “EXT: mean difference in nematode size relative to plate controls” value ([9]; 50 µM) was 0.2596 and the “EXT: mean difference in nematode size relative to plate controls” value ([9]; 75 µM) was 0.3422. For the same compound, the “EXT: mean difference in nematode size relative to plate controls” value ([9]; 100 µM) was 0.4149, the minimal effective concentration ([9]; Caenorhabditis elegans, read-out: LEC EXT: lowest effect concentration for extinction, a measure of nematode size) was 25 µM and the “MMP assays efficacy (%) Rat Hepatocytes” value (rat primary hepatocytes [10]) was -93±8%. The “Rat hepatocytes (efficacy) (MMP)” value (rat primary hepatocytes [10]) was 3.79±1.62 ( −118±24.7 ) %, the Parkin recruitment [11] was “Inactive” and the IC50 (HepG2 cells [12]; read-out: ATP (HepG2, galactose) IC50) was 22.3 µM. The IC50 (HepG2 cells [12]; read-out: ATP (HepG2, glucose) IC50) was 24.7 µM, the IC50 (hNSC) was 0.15 µM and the “ROS (HepG2) EC50” value (HepG2 cells [13]) was “Inactive”.
